Data published in patent US20260061016A1, “Extrait aqueux des parties aériennes d'une plante du genre Aster et ses utilisations” (TAUDERMA, priority 2022, published 2026).
Converted amounts (≈) assume the structure as drawn.

Tested on: S. aureus registered under number DSM799
Assay: Minimum inhibitory concentration (MIC), solution culture in 96-well plates followed by drop culture on TSB agar
Type: cell-based, Staphylococcus aureus
Protocol: The aim of the test is to compare the efficacy of an extract according to Example 1 or Example 2 and an extract of the Aster genus obtained from the root system (Without the Invention). The aim of the test is to identify the minimum inhibitory concentration (MIC) on a strain of S. aureus registered under number DSM799. The minimum inhibitory concentration (MIC) was determined in vitro using S. aureus solution culture in 96-well plates. The initial concentration of S. aureus was 1.25*10^5 CFU/ml. After 48 h incubation in the presence of a series of dilutions of the extract, a 20 μl drop was taken and placed on a TSB agar plate. The diameter of the “drop culture” is about 1.5 cm. Agar plate cultures were then incubated at 37° C. for 14 hours. The positive control corresponds to the maximum growth of a bacterium, that is, when it is fully confluent, meaning that bacterial colonies stick together and none are visible. Different extracts according to the invention and not according to the invention at different concentrations are thus compared. When no colonies, or separate individual colonies, are visible, then the bacteria have been inhibited by the extract. The extract concentration is then defined as MIC. […] The definition of MIC is as follows: Arbitrary units of bacterial growth were determined on agar culture plates (drop method). […]

MIC (Staphylococcus aureus, 48 h incubation with extract dilutions, drop on TSB agar, 14 h at 37° C.): 50 µg/mL (≈ 155 µM)
SMILES: O=C(N[C@H](CO)[C@H](O)c1ccc([N+](=O)[O-])cc1)C(Cl)Cl [Chloramphenicol]
Number of colonies (agar drop culture at the MIC): 0
